{"source": "patent US20260041093A1", "about": "“Ionic Derivatives Of Aromatic Carboxylic Acid For Use As Plant Stimulants, Method For Stimulating Plants And Use Of These Derivatives For Manufacturing Compositions For Stimulating Plants” (FUNDACJA UNIWERSYTETU IM. ADAMA MICKIEWICZA W POZNANIU, priority 2022, published 2026)", "key": {"winter wheat": {"tested_on": "winter wheat", "method": "The experiment was established using the long strip method, in four repetitions Gross area of each plot was 48 m^2, while the harvest area was 23.25 m^2 net. Following variants of treatment were tested: • 1. Control—no stimulant application, standard fungicide programme • 2. Stimulant application at BBCH 32, standard fungicide programme • 3. Stimulant application at BBCH 32, no fungicide application • 4. Stimulant application at BBCH 55 and 10-12 days later, standard fungicide programme • 5. […] In this experiment, standard NPK fertilization was applied, using both bulk and liquid fertilizers.\nThe experiment was established using the long strip method, in four repetitions Gross area of each plot was 48 m2, while the harvest area was 23.25 m2 net. Following variants of treatment were tested: • 1. Control—no stimulant application, standard fungicide programme, • 2. Stimulant application at BBCH 32, standard fungicide programme • 3. Stimulant application at BBCH 32, no fungicide application • 4. Stimulant application at BBCH 55 and 10-12 days later, standard fungicide programme • 5. […] In the experiment, uniform NPK fertilization was applied, using both bulk and liquid fertilizers."}, "lettuce": {"tested_on": "lettuce", "details": "3-chlorosalicylate 100 mg/L double application, benzothiadiazole salt 50 mg/L single application", "method": "The purpose of the study was to determine the effect of foliar spraying with test solutions on lettuce plants (Lactuca sativa L. ‘Zeralda’) under abiotic stress conditions—low temperature. After 7 and 14 days after transplanting the plants to a permanent place, spraying of the plants was carried out. […] After another 7 days, low temperature stress was induced—plants were grown in three glass chambers with a day temperature of 22° C. and night temperatures of 4, 12 and 20° C. until harvest."}, "bell pepper": {"tested_on": "bell pepper", "assay": "Bell pepper seedlings in pots sprayed: height, fresh and dry weight (Example 5)", "format": "in vivo", "details": "3-chlorosalicylate 80 mg/L, benzothiadiazole salt 30 mg/L", "method": "Pepper seedlings were planted into pots with peat substrate (P9 pots having 0,5 l). Pots were placed in greenhouse and cultivated for a 1 month. […] Plants treated with water only were the untreated control. During the course of the experiment, the height of the plants was measured, and at the end the fresh and dry weight of the aboveground part was evaluated."}, "[1]": {"tested_on": "apple trees (M9 rootstocks)", "details": "4 sprays at 14-day intervals; 3-chlorosalicylate 100 mg/L, benzothiadiazole salt 25 mg/L", "excerpt": "Flowers were counted during the experiment, and the number of shoots and leaves in the fall."}, "tomato": {"tested_on": "tomato", "assay": "Greenhouse tomato sprayed three times: yield, health-promoting substances, leaf chlorophyll (Example 2)", "format": "in vivo", "details": "80 mg/L, benzothiadiazole salt 30 mg/L, chitosan lactate 50 mg/L", "method": "Biostimulant properties were evaluated for the following stimulants: […] The evaluation of stimulant properties included the influence of tested substances on tomato yield, content of health-promoting substances in yield and chlorophyll content in tomato leaves. […] The untreated control plants were sprayed with distilled water. During the experiment, total yield weight, commercial and non-commercial yield and average commercial fruit weight, number of fruits per plant and average fruit weight per plant were evaluated. […] Chlorophyll was measured before each treatment and one day after each treatment using Minolta's SPAD-502 chlorophyll meter."}, "[2]": {"details": "BBCH 32, standard fungicide protection, 80 mg/L, benzothiadiazole salt 30 mg/L"}, "[3]": {"details": "BBCH 32, stimulant only, 80 mg/L, benzothiadiazole salt 30 mg/L"}, "[4]": {"details": "BBCH 55, standard fungicide protection, 80 mg/L, benzothiadiazole salt 30 mg/L"}, "[5]": {"details": "BBCH 55, without fungicide, 80 mg/L, benzothiadiazole salt 30 mg/L"}, "[6]": {"details": "first sampling date, 80 mg/L, benzothiadiazole salt 30 mg/L"}, "[7]": {"details": "last sampling date, late milk, 80 mg/L, benzothiadiazole salt 30 mg/L"}}, "note": "Like-named read-outs stand apart in the source and are kept apart here."}
{"smiles": "C[N+](C)(C)CCO.O=C([O-])c1cccc(Cl)c1O", "note": "[choline 3-chlorosalicylate]", "values": [{"measurement": "increase in calcium uptake", "setting": "winter wheat; [2]", "result": 4, "unit": "%"}, {"measurement": "increase in gluten content of wheat grain", "setting": "winter wheat; [2]", "result": 8, "unit": "%"}, {"measurement": "increase in magnesium uptake", "setting": "winter wheat; [2]", "result": 4, "unit": "%"}, {"measurement": "increase in nitrogen uptake", "setting": "winter wheat; [2]", "result": 7, "unit": "%"}, {"measurement": "increase in phosphorus uptake", "setting": "winter wheat; [2]", "result": 8, "unit": "%"}, {"measurement": "increase in potassium uptake", "setting": "winter wheat; [2]", "result": 6, "unit": "%"}, {"measurement": "increase in protein content of wheat grain", "setting": "winter wheat; [2]", "result": 10, "unit": "%"}, {"measurement": "increase in calcium uptake", "setting": "winter wheat; [3]", "result": 6, "unit": "%"}, {"measurement": "increase in gluten content of wheat grain", "setting": "winter wheat; [3]", "result": 7, "unit": "%"}, {"measurement": "increase in magnesium uptake", "setting": "winter wheat; [3]", "result": 5, "unit": "%"}, {"measurement": "increase in nitrogen uptake", "setting": "winter wheat; [3]", "result": 7, "unit": "%"}, {"measurement": "increase in phosphorus uptake", "setting": "winter wheat; [3]", "result": 9, "unit": "%"}, {"measurement": "increase in potassium uptake", "setting": "winter wheat; [3]", "result": 8, "unit": "%"}, {"measurement": "increase in protein content of wheat grain", "setting": "winter wheat; [3]", "result": 8, "unit": "%"}, {"measurement": "increase in calcium uptake", "setting": "winter wheat; [4]", "result": 4, "unit": "%"}, {"measurement": "increase in gluten content of wheat grain", "setting": "winter wheat; [4]", "result": 9, "unit": "%"}, {"measurement": "increase in magnesium uptake", "setting": "winter wheat; [4]", "result": 5, "unit": "%"}, {"measurement": "increase in nitrogen uptake", "setting": "winter wheat; [4]", "result": 14, "unit": "%"}, {"measurement": "increase in phosphorus uptake", "setting": "winter wheat; [4]", "result": 12, "unit": "%"}, {"measurement": "increase in potassium uptake", "setting": "winter wheat; [4]", "result": 6, "unit": "%"}, {"measurement": "increase in protein content of wheat grain", "setting": "winter wheat; [4]", "result": 11, "unit": "%"}, {"measurement": "increase in calcium uptake", "setting": "winter wheat; [5]", "result": 5, "unit": "%"}, {"measurement": "increase in gluten content of wheat grain", "setting": "winter wheat; [5]", "result": 8, "unit": "%"}, {"measurement": "increase in magnesium uptake", "setting": "winter wheat; [5]", "result": 6, "unit": "%"}, {"measurement": "increase in nitrogen uptake", "setting": "winter wheat; [5]", "result": 16, "unit": "%"}, {"measurement": "increase in phosphorus uptake", "setting": "winter wheat; [5]", "result": 12, "unit": "%"}, {"measurement": "increase in potassium uptake", "setting": "winter wheat; [5]", "result": 5, "unit": "%"}, {"measurement": "increase in protein content of wheat grain", "setting": "winter wheat; [5]", "result": 10, "unit": "%"}, {"measurement": "fresh weight of aboveground part higher than control", "setting": "winter wheat; first sampling date (beginning of shooting), first of two sprayed objects (with / without fungicide, respectively), 80 mg/L, benzothiadiazole salt 30 mg/L", "result": 12, "unit": "%"}, {"measurement": "dry root mass higher than control", "setting": "winter wheat; [6]", "result": 19, "unit": "%"}, {"measurement": "fresh root mass higher than control", "setting": "winter wheat; [6]", "result": 15, "unit": "%"}, {"measurement": "dry weight of aboveground part higher than control", "setting": "winter wheat; first sampling date, first of two sprayed objects, 80 mg/L, benzothiadiazole salt 30 mg/L", "result": 11, "unit": "%"}, {"measurement": "fresh weight of aboveground part higher than control", "setting": "winter wheat; first sampling date, second of two sprayed objects (with / without fungicide, respectively), 80 mg/L, benzothiadiazole salt 30 mg/L", "result": 17, "unit": "%"}, {"measurement": "dry weight of aboveground part higher than control", "setting": "winter wheat; first sampling date, second of two sprayed objects, 80 mg/L, benzothiadiazole salt 30 mg/L", "result": 16, "unit": "%"}, {"measurement": "SPAD chlorophyll readings versus control", "setting": "winter wheat; first term, stimulant at BBCH 32, with or without fungicide", "result": "significantly higher"}, {"measurement": "more aboveground biomass, BBCH 55 treatment compared to control", "setting": "winter wheat; [7]", "result": 31, "unit": "%"}, {"measurement": "more aboveground biomass, BBCH 55 treatment compared to plants sprayed at an earlier stage", "setting": "winter wheat; [7]", "result": 12, "unit": "%"}, {"measurement": "more root biomass, BBCH 55 treatment compared to control", "setting": "winter wheat; [7]", "result": 25, "unit": "%"}, {"measurement": "more root biomass, BBCH 55 treatment compared to plants sprayed at an earlier stage", "setting": "winter wheat; [7]", "result": 17, "unit": "%"}, {"measurement": "fresh and dry root weight versus other experimental facilities", "setting": "winter wheat; second sampling date", "result": "comparable"}, {"measurement": "fresh and dry matter yields versus other experimental facilities", "setting": "winter wheat; second sampling date, end of heading", "result": "comparable"}, {"measurement": "SPAD chlorophyll readings", "setting": "winter wheat; second term, stimulant at BBCH 32 without fungicide versus other objects", "result": "higher"}, {"measurement": "chlorophyll content of wheat leaves versus control", "setting": "winter wheat; third term, with or without fungicide", "result": "significantly higher"}, {"measurement": "Head weight, 4° C.", "setting": "lettuce; night temperature 4° C.", "result": 48.9, "unit": "b g/plant"}, {"measurement": "Head weight, 12° C.", "setting": "lettuce; night temperature 12° C.", "result": 52.8, "unit": "b g/plant"}, {"measurement": "Head weight, 20° C.", "setting": "lettuce; night temperature 20° C.", "result": 65.3, "unit": "b g/plant"}, {"measurement": "Average dry mass", "setting": "bell pepper", "result": 12.2, "unit": "b g"}, {"measurement": "Average fresh mass", "setting": "bell pepper", "result": 85.7, "unit": "b g"}, {"measurement": "Average plant height, initial height, before first treatment", "setting": "bell pepper", "result": 41.5, "unit": "a mm"}, {"measurement": "Average plant height, second treatment", "setting": "bell pepper", "result": 161.8, "unit": "c mm"}, {"measurement": "Average plant height, third treatment", "setting": "bell pepper", "result": 221.5, "unit": "b mm"}, {"measurement": "Plant height increase", "setting": "bell pepper", "result": 180.0, "unit": "b mm"}, {"measurement": "Average number of flowers per plant", "setting": "[1]", "result": 30.3, "unit": "b"}, {"measurement": "Average number of leaves per plant", "setting": "[1]", "result": 45.3, "unit": "b"}, {"measurement": "Average number of shoots per plant", "setting": "[1]", "result": 6.7, "unit": "b"}, {"measurement": "Chlorophyll content (SPAD), a day after treatment #1", "setting": "tomato", "result": 61.4, "unit": "b"}, {"measurement": "Chlorophyll content (SPAD), a day after treatment #2", "setting": "tomato", "result": 60.3, "unit": "b"}, {"measurement": "Chlorophyll content (SPAD), a day after treatment #3", "setting": "tomato", "result": 62.5, "unit": "b"}, {"measurement": "Chlorophyll content (SPAD), Treatment #1", "setting": "tomato; before treatment #1", "result": 50.2, "unit": "a"}, {"measurement": "Chlorophyll content (SPAD), Treatment #2", "setting": "tomato; before treatment #2", "result": 49.4, "unit": "a"}, {"measurement": "Chlorophyll content (SPAD), Treatment #3", "setting": "tomato; before treatment #3", "result": 50.9, "unit": "a"}, {"measurement": "Average fruit weight per plant", "setting": "tomato; spray 3x", "result": 154.23, "unit": "b g"}, {"measurement": "Average weight of marketable fruit", "setting": "tomato; spray 3x", "result": 26.25, "unit": "b kg/m^2"}, {"measurement": "Commercial yield", "setting": "tomato; spray 3x", "result": 18.4, "unit": "b kg/m^2"}, {"measurement": "Number of fruits per plant", "setting": "tomato; spray 3x", "result": 4.30, "unit": "b"}, {"measurement": "Total yield", "setting": "tomato; spray 3x", "result": 19.13, "unit": "b kg/m^2"}, {"measurement": "Calcium", "setting": "tomato; tomato fruits", "result": 97.2, "unit": "a mg/kg"}, {"measurement": "Lycopene", "setting": "tomato; tomato fruits", "result": 36.4, "unit": "b mg/kg"}, {"measurement": "Magnesium", "setting": "tomato; tomato fruits", "result": 104.5, "unit": "b mg/kg"}, {"measurement": "Vit. C", "setting": "tomato; tomato fruits", "result": 191.5, "unit": "c mg/kg"}, {"measurement": "Vit. E", "setting": "tomato; tomato fruits", "result": 25.6, "unit": "b mg/kg"}, {"measurement": "°Brix (sugar content of the liquid expressed in degree of Brix)", "setting": "tomato; tomato fruits", "result": 5.91, "unit": "b g"}]}
